Test results as given in patent US6221865A, “Inhibitors of protein isoprenyl transferases” (priority 1998, dated 2001).
Structures can show the parent of a compound that is named as a salt.

Each molecule was assayed against T1, protein farnesyltransferase (Rattus norvegicus, UniProt Q02293+Q04631) (assay: Inhibition of farnesyltransferase (scintillation proximity assay, rat brain enzyme, biotin-K Ras B fragment substrate)). Settings: 1 × 10^-5 M (Table 1).
T1 construct: The enzyme is purified according to Reiss, Y., et al., Cell, 62: 81-88 (1990), utilizing steps one through three; from tissue; host or cells: rat brain
T1 sequence (Q02293 whole entry, the tested form may be a part, one chain of several): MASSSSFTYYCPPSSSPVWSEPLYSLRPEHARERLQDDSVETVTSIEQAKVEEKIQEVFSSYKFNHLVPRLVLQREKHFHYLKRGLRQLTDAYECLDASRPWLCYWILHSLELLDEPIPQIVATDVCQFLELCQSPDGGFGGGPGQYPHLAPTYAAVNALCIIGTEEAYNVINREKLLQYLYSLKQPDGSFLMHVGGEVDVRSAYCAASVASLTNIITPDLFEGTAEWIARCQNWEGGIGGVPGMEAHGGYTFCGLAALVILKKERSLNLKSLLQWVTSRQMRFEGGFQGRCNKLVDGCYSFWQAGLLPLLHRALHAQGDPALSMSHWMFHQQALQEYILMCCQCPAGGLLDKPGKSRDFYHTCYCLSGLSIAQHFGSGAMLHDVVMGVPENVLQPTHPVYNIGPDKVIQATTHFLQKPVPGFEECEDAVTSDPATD
Type: biochemical
Method in brief: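 Enzyme from rat brain, partly purified (steps one to three), assayed by SPA kit using 0.1 mM final biotin-K Ras B peptide as prenyl acceptor rather than biotin-lamin. Activity given as percent inhibition.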

Q: For CSCC[C@H](NC(=O)c1ccc(CNc2ccc(O)cc2)cc1-c1ccccc1)C(=O)O [Example 689], which “% inhibition of farnesyltransferase at 1 × 10^-5 M” value is on record?
A: 73%

Same assay, conditions: 1 × 10^-6 M (Table 2)

Q: CSCC[C@H](NC(=O)c1ccc(CN(Cc2ccccc2)Cc2cccc(Oc3ccccc3)c2)cc1-c1ccccc1C)C(=O)O [Example 514] was tested. Which “% inhibition of farnesyltransferase at 1 × 10^-6 M” value (from here on “% inhibition … at 1 × 10^-6 M”) did it give?
A: 94%

Q: For CSCC[C@H](NC(=O)c1ccc(CN(C)CCc2ccccc2)cc1-c1ccccc1C)C(=O)O [Example 516], which “% inhibition … at 1 × 10^-6 M” value is on record?
A: 95%

Q: How did the “% inhibition … at 1 × 10^-6 M” value turn out when CSCC[C@H](NC(=O)c1ccc(CNc2ccc(OC(F)(F)F)cc2)cc1-c1ccccc1)C(=O)O [Example 691] was run?
A: 34%

Q: For CSCC[C@H](NC(=O)c1ccc(COCCc2ccccc2)cc1-c1ccccc1C)C(=O)[O-].[Li+] [Example 587], which “% inhibition … at 1 × 10^-6 M” value is on record?
A: 97%

Q: Which “% inhibition … at 1 × 10^-6 M” value does the source give for CSCC[C@H](NC(=O)c1ccc(COC2CCN(C(=O)OC(C)(C)C)CC2)cc1-c1ccccc1C)C(=O)[O-].[Li+] [Example 808] here?
A: 88%

Q: With CSCC[C@H](NC(=O)c1ccc(CNc2cccc(C(N)=O)c2)cc1-c1ccccc1)C(=O)O [Example 682] as the molecule, how does the “% inhibition … at 1 × 10^-6 M” value read?
A: 31%

Q: CSCC[C@H](NC(=O)c1ccc(NCC(CO)Cc2ccccc2)cc1-c1ccccc1C)C(=O)O (some centres unmarked) [Example 476] was tested. Which “% inhibition … at 1 × 10^-6 M” value did it give?
A: 91%

Q: CCS(=O)(=O)C[C@H](CC1CCCCC1)NCc1ccc(C(=O)N[C@@H](CCSC)C(=O)O)c(-c2ccccc2C)c1 [Example 620] was tested. Which “% inhibition … at 1 × 10^-6 M” value did it give?
A: 98%

Q: With CSCC[C@H](NC(=O)c1ccc(COCc2ccccc2)cc1-c1ccccc1)C(=O)O [Example 575] as the molecule, how does the “% inhibition … at 1 × 10^-6 M” value read?
A: 70%

Q: Which “% inhibition … at 1 × 10^-6 M” value does the source give for CSCC[C@H](NC(=O)c1ccc(CN(Cc2cncs2)S(C)(=O)=O)cc1-c1ccccc1C)C(=O)O [Example 878] here?
A: 95%

Q: With CSCCC(NC(=O)c1ccc(NC(=O)C2CCCNC2)cc1-c1ccccc1)C(=O)O (centres unmarked) [Example 231] as the molecule, how does the “% inhibition … at 1 × 10^-6 M” value read?
A: 50%

Q: How did the “% inhibition … at 1 × 10^-6 M” value turn out when CSCCC(NC(=O)c1ccc(CNC(CO)c2ccccc2)cc1-c1ccccc1)C(=O)O (centres unmarked) [Example 657] was run?
A: 32%

Q: Which “% inhibition … at 1 × 10^-6 M” value does the source give for CSCC[C@H](NC(=O)c1cc(Cc2ccccc2)c(COCc2ccco2)cc1-c1ccccc1C)C(=O)O [Example 924] here?
A: 77%

Q: CSCC[C@H](NC(=O)c1ccc(NC(=O)C[C@H]2C[C@@H](C(C)=O)C2(C)C)cc1-c1ccccc1)C(=O)O [Example 751] was tested. Which “% inhibition … at 1 × 10^-6 M” value did it give?
A: 32%

Q: With CSCC[C@H](NC(=O)c1ccc(CN(C)CC(O)CO)cc1-c1ccccc1C)C(=O)O (some centres unmarked) [Example 719] as the molecule, how does the “% inhibition … at 1 × 10^-6 M” value read?
A: 90%

Q: Which “% inhibition … at 1 × 10^-6 M” value does the source give for CSCC[C@H](NC(=O)c1ccc(CNc2ccc(CCO)cc2)cc1-c1ccccc1)C(=O)O [Example 694] here?
A: 45%

Same assay, conditions: 1 × 10^-7 M (Table 3)

Q: With CSCC[C@H](NC(=O)c1ccc(COCc2cnco2)cc1-c1ccccc1C)C(=O)[O-].[Li+] [Example 891] as the molecule, how does the “% inhibition of farnesyltransferase at 1 × 10^-7 M” value (from here on “% inhibition … at 1 × 10^-7 M”) read?
A: 94%

Q: With CSCC[C@H](NC(=O)c1ccc(COCCCCc2ccccc2)cc1-c1ccccc1C)C(=O)O [Example 601] as the molecule, how does the “% inhibition … at 1 × 10^-7 M” value read?
A: 92%

Q: With CSCC[C@H](NC(=O)c1ccc(CN[C@H](CSc2ccccc2)CC2CCCCC2)cc1-c1ccccc1C)C(=O)O [Example 623] as the molecule, how does the “% inhibition … at 1 × 10^-7 M” value read?
A: 96%

Q: With CSCC[C@H](NC(=O)c1ccc(CN(CCC2CCCCC2)S(C)(=O)=O)cc1-c1ccccc1C)C(=O)O [Example 611] as the molecule, how does the “% inhibition … at 1 × 10^-7 M” value read?
A: 95%

Q: How did the “% inhibition … at 1 × 10^-7 M” value turn out when CSCC[C@H](NC(=O)c1ccc(COc2ccc(Oc3ccccc3)cc2)cc1-c1ccccc1C)C(=O)[O-].[Li+] [Example 795] was run?
A: 87%

Q: CSCC[C@H](NC(=O)c1ccc(COCc2ccc(C)o2)cc1-c1ccccc1C)C(=O)O [Example 532] was tested. Which “% inhibition … at 1 × 10^-7 M” value did it give?
A: 88%

Q: For CSCC[C@H](NC(=O)c1ccc(COCCc2cccc3ccccc23)cc1-c1ccccc1C)C(=O)[O-].[Li+] [Example 592], which “% inhibition … at 1 × 10^-7 M” value is on record?
A: 93%

Q: With CSCC[C@H](NC(=O)c1ccc(COCc2ccc(-c3ccc(Cl)cc3)o2)cc1-c1ccccc1C)C(=O)NS(C)(=O)=O [Example 818] as the molecule, how does the “% inhibition … at 1 × 10^-7 M” value read?
A: 78%

Same assay, conditions: 1 × 10^-8 M (Table 4)

Q: CSCC[C@H](NC(=O)c1ccc(CN(Cc2ccccc2)c2ccc([N+](=O)[O-])cc2)cc1-c1ccccc1C)C(=O)O [Example 843] was tested. Which “% inhibition of farnesyltransferase at 1 × 10^-8 M” value (from here on “% inhibition … at 1 × 10^-8 M”) did it give?
A: 96%

Q: Which “% inhibition … at 1 × 10^-8 M” value does the source give for CSCC[C@H](NC(=O)c1ccc(COCc2ccc(-c3ccc(C(C)C)cc3)o2)cc1-c1ccccc1C)C(=O)[O-].[Li+] [Example 820] here?
A: 66%

Q: CSCC[C@H](NC(=O)c1ccc(COCc2cccc(Cl)c2)cc1-c1ccccc1C)C(=O)[O-].[Li+] [Example 934] was tested. Which “% inhibition … at 1 × 10^-8 M” value did it give?
A: 71%

Q: How did the “% inhibition … at 1 × 10^-8 M” value turn out when CSCC[C@H](NC(=O)c1ccc(COCc2ccc(-c3ccc(N(C)C)cc3)o2)cc1-c1ccccc1C)C(=O)O [Example 821] was run?
A: 75%

Q: For CSCC[C@H](NC(=O)c1ccc(COCc2ccccc2Cl)cc1-c1ccccc1C)C(=O)[O-].[Li+] [Example 930], which “% inhibition … at 1 × 10^-8 M” value is on record?
A: 66%

Q: How did the “% inhibition … at 1 × 10^-8 M” value turn out when CSCC[C@H](NC(=O)c1ccc(CN(Cc2ccccc2)c2cccc(C(C)=O)c2)cc1-c1ccccc1C)C(=O)O [Example 845] was run?
A: 85%

Same assay, conditions: Table 6, * = 0.1 μM (footnote); title prints 0.1 mM

Q: For CCCCC(OCc1ccc(C(=O)N[C@@H](CCSC)C(=O)[O-])c(-c2ccccc2C)c1)C1CCNCC1.[Li+] (some centres unmarked) [Example 1288], which “% inhibition at 0.1 μM (*)” value is on record?
A: 69%

Same assay, conditions: Table 6, ** = 0.01 μM (footnote); title prints 0.01 mM

Q: Which “% inhibition at 0.01 μM (**)” value does the source give for CCSCC(CC1CCCCC1)NCc1cc(-c2ccccc2C)c(C(=O)N[C@@H](CCSC)C(=O)O)cc1OC (some centres unmarked) [Example 1337] here?
A: 83%

Same assay, conditions: read-out: % inhibition at 0.01 μM (**); Table 6, ** = 0.01 μM (footnote); title prints 0.01 mM

Q: CCCCP(=O)(Cc1ccc(C(=O)N[C@@H](CCSC)C(=O)O)c(-c2ccccc2C)c1)CC1CCCCC1 (some centres unmarked) [Example 1213, N-[4-((Cylohexylmethyl)butyl(oxophosphinyl)methyl)-2-(2-methylphenyl)benzoyl]methionine] was tested. Which inhibition at 0.01 µM did it give?
A: 79%

Same assay, conditions: read-out: % inhibition at 0.1 μM (*); Table 6, * = 0.1 μM (footnote); title prints 0.1 mM

Q: For CSCC[C@H](NC(=O)c1ccc(CN2CCC[C@H]2CN2CCCCC2)cc1-c1ccccc1C)C(=O)O [Example 1125, N-[4-(2-piperidin-1-ylmethylpyrrolidin-1-ylmethyl)-2-(2-methylphenyl)benzoyl]methionine], which inhibition at 0.1 µM is on record?
A: 92%

Q: With CSCC[C@H](NC(=O)c1ccc(CN2CCC[C@H]2CN(C)C2CCCCC2)cc1-c1ccccc1C)C(=O)O [Example 1127] as the molecule, how does the inhibition at 0.1 µM read?
A: 90%

Same assay, conditions: read-out: % inhibition of farnesyltransferase at 1 × 10^-6 M; 1 × 10^-6 M (Table 2)

Q: With Cc1ccccc1-c1cc(CN(C)C(C)(C)Cc2ccccc2)ccc1C(=O)N[C@@H](CCS(C)(=O)=O)C(=O)O [Example 313] as the molecule, how does the inhibition at 1 µM read?
A: 94%

Q: How did the inhibition at 1 µM turn out when CSCC[C@H](NC(=O)c1ccc(CN2CCN(C(=O)OC(C)(C)C)CC2)cc1-c1ccccc1C)C(=O)O [Example 866, N-[4-(4-t-butoxycarbonylpiperazin-1-ylmethyl)-2-(2-methylphenyl)benzoyl]methionine] was run?
A: 62%

Q: With CSCC[C@H](NC(=O)c1ccc(CN(C)C(CC2CCCCC2)C(=O)N2CCOCC2)cc1-c1ccccc1C)C(=O)O (some centres unmarked) [Example 302] as the molecule, how does the inhibition at 1 µM read?
A: 31%

Q: How did the inhibition at 1 µM turn out when CSCC[C@H](NC(=O)c1ccc(/C=C/c2ccccc2)cc1-c1ccccc1C)C(=O)O [Example 791, N-[4-(2-phenylethen-1-yl)-2-(2-methylphenyl)benzoyl]methionine] was run?
A: 53%

Q: How did the inhibition at 1 µM turn out when CSCC[C@H](NC(=O)c1ccc(CN2CCN(c3ccccc3)CC2)cc1-c1ccccc1C)C(=O)O [Example 867, N-[4-(4-phenylpiperazin-1-ylmethyl)-2-(2-methylphenyl)benzoyl]methionine] was run?
A: 71%

Q: For CSCC[C@H](NC(=O)c1ccc(-c2ccc(-c3ccccc3)cc2)cc1-c1ccccc1C)C(=O)O [Example 788, N-[4-(4-phenylphenyl)-2-(2-methylphenyl)benzoyl]methionine lithium salt], which inhibition at 1 µM is on record?
A: 44%

Q: How did the inhibition at 1 µM turn out when CSCC[C@H](NC(=O)c1ccc(S(=O)(=O)NCCN2CCCCC2)cc1-c1ccccc1C)C(=O)O [Example 774, lithium salt] was run?
A: 48%

Q: CCCCON(CCC1CCCCC1)Cc1ccc(C(=O)N[C@@H](CCS(C)(=O)=O)C(=O)O)c(-c2ccccc2C)c1 [Example 298] was tested. Which inhibition at 1 µM did it give?
A: 43%

Same assay, conditions: read-out: % inhibition of farnesyltransferase at 1 × 10^-7 M; 1 × 10^-7 M (Table 3)

Q: With CSCC[C@H](NC(=O)c1ccc(CCc2ccc(C3CCCCC3)cc2)cc1-c1ccccc1C)C(=O)O [Example 461, N-[4-(2-(4-cyclohexylphenyl)ethyl)-2-(2-methylphenyl)benzoyl]methionine lithium salt] as the molecule, how does the inhibition at 0.1 µM read?
A: 93%

Q: CSCC[C@H](NC(=O)c1ccc(CCc2ccc(Oc3ccccc3N)cc2)cc1-c1ccccc1C)C(=O)O [Example 857, N-[4-(2-(4-(2-aminophenoxy)phenyl)ethyl)-2-(2-methylphenyl)benzoyl]methionine] was tested. Which inhibition at 0.1 µM did it give?
A: 92%

Q: CSCC[C@H](NC(=O)c1ccc(CCc2ccc(Oc3cccc(Cl)c3)cc2)cc1-c1ccccc1C)C(=O)O [Example 859, N-[4-(2-(4-(3-chlorophenoxy)phenyl)ethyl)-2-(2-methylphenyl)benzoyl]methionine] was tested. Which inhibition at 0.1 µM did it give?
A: 86%
